Data published in a melting point compilation (Tetko et al.; mined from patent text by program, amines drawn as free bases though some values may be those of a salt).

| Structure (SMILES) | melting point [°C] |
| --- | --- |
| NCCOc1ccc(C(=C(c2ccc(F)cc2)C(F)(F)F)c2ccccc2)cc1 | 83 to 89 |
| COc1cc(COc2nn(-c3ccccc3)cc2/C=C/C#N)ccc1OCc1nc(-c2ccco2)oc1C | 177 to 178 |
| CCOc1c(N2CCNCC2)c(F)cc2c(=O)c(C(=O)O)cn(C3CC3)c12 | 119 to 122 |
| Cn1nnnc1S(=O)(=O)CCCCBr | 83.5 to 85.5 |
| CSc1ccc(/C=C2/C(C)=C(CC=NO)c3cc(F)ccc32)cc1 | 146 to 150 |
| OC1(c2ccc3c(c2)OCO3)CCN(CC=Cc2ccccc2)CC1 | 114 to 115 |
| O=C(O)CCN(O)CCC(=O)O | 148 to 149 |
| CCOC(=O)NNc1nc2ccc(-n3ccnc3)cc2n(OCc2ccccc2)c1=O | 197 to 199 |
| Cc1ccc(S(=O)(=O)Oc2ccc(C(=O)c3c(-c4ccccc4)cc4ccccn34)cc2)cc1 | 177 to 178 |
| N#Cc1ccc2c(c1)C1(c3ccccc3-2)c2ccccc2-c2ccc(C#N)cc21 | 215 to 245 |
| COc1cc(OC(C)C(=O)O)c2c3c(C(N)=O)cccc3n(Cc3ccccc3)c2c1 (centres undefined) | 170 to 172 |
| O=C(NCCOc1ccccn1)C1Cc2ccccc2N1S(=O)(=O)c1ccc(-c2cccc(C(F)(F)F)c2)cc1 (centres undefined) | 85 |
| CCOC(=O)C1(C)C(=O)Nc2cc(NC(=O)c3ccncc3)ccc21 (centres undefined) | 222 to 224 |
| CCC(C(C)C)C1OC1C(C)C1CCC2C3CCC4=CC(=O)CCC4(C)C3CCC12C (centres undefined) | 111 to 112 |
| N=C(NCCNC(c1ccccc1)(c1ccccc1)c1ccccc1)N[N+](=O)[O-] | 217 to 219 |
| Fc1ccc(-c2nc(-c3ccccn3)cs2)cc1 | 140 to 144 |
| Cc1nc(O)c(-c2ccccc2)s1 | 208 to 211 |
| COc1ccc(-n2ncc(C(N)=O)c2N)cc1 | 213 to 215 |
| Cc1ccc(S(=O)(=O)n2ccc3c(-c4c(C)nc5ccc(Cl)nn45)ccnc32)cc1 | 138 to 140 |
| Cc1nc2c(c3c1[nH]c1ccccc13)CCC(C)(C)C2 | 241 to 243 |

| Structure (SMILES) | melting point [°C] |
| --- | --- |
| COc1ccc(-c2sc3cc(OC)ccc3c2C(=O)c2cc(OC)cc(OC)c2)cc1 | 114 to 120 |
| CN(C(=O)Oc1ccc([N+](=O)[O-])cc1)c1ccc(-c2ncn(-c3ccc(OC(F)(F)F)cc3)n2)cc1 | 145 to 147 |
| CC(C)S(=O)(=O)c1cc(O)c(N)c(C#N)c1 | 166 to 167 |
| O=c1[nH]cc(C=CBr)c(=O)[nH]1 | > 320 |
| COc1ccccc1Oc1cccc2c1NC(=O)C2 | 145 to 147 |
| O=Cc1scc2c1-c1cccc3cccc-2c13 | 123 to 126 |
| Cc1c(Cl)c(Cl)c(Cl)c(Cl)c1CCl | 102 to 103 |
| CN(C)c1ncc2c(=O)n(CCc3ccccn3)sc2n1 | 134 to 136 |
| COC(=O)c1cccc2[nH]c3ccccc3c12 | 84.3 |
| FC(F)(c1ccccc1)C(F)(F)c1ccc(Br)cc1 | 80 to 82 |
| CCc1c(-c2ccc(OC)cc2)c2cc(C(C)=O)c3cc(OC)cc1n32 | 137 to 139 |
| Cc1[nH]c(C=O)c(C)c1-c1nc2ccc(C(=O)c3ccccc3)cc2[nH]1 | 253 to 255 |
| CC(C)(C)Nc1c([N+](=O)[O-])cnc2ccccc12 | 106 to 108 |
| CC(C)CC(C(=O)OCc1ccccc1)N1C(=O)C2(CCCN2C(=O)OC(C)(C)C)CC1O (mixture of isomers) | 134 to 135 |
| COc1ccc(C(=O)c2ccc(OCc3coc(-c4ccccc4)n3)cc2)c(OC(C)(C)C(=O)O)c1 | 165 to 167 |
| Nc1ncc2cc(-c3ccccc3)c(N)nc2n1 | 317 to 318 |
| CC(=O)N1CC(C)c2c1cc(C)c(O)c2C (centres undefined) | 204 to 205 |
| CCCCCCCCCCCCCCCCCCOCCSCCOC(=O)N(Cc1ccccn1)C(C)=O | 47 to 49 |
| Cn1nc(-c2cccc(-n3ncc4cc(C(C)(C)C)cc(F)c4c3=O)c2CO)cc(Nc2cnc(CNC3CCC3)cn2)c1=O | 163 to 167 |
| Cc1cc(Nc2ncnc3ccc(-c4cccs4)cc23)ccc1OCc1ccccn1 | 205 to 206 |

| Structure (SMILES) | melting point [°C] |
| --- | --- |
| CC(C)O[Si](C)(C)C[C@](O)(c1ccc(F)cc1F)[C@@H](C)n1ncn(-c2ccc(OCC(F)(F)C(F)F)cc2)c1=O | 125 to 126 |
| Cn1c([N+](=O)[O-])cnc1COc1ccc(C#N)cc1 | 130 |
| COc1ccc(C2Cc3cc(C(F)(F)F)ccc3NC(=O)C2CSC)cc1 (centres undefined) | 224 to 226 |
| Cc1cc(I)sc1COCP(=O)(OC(C)C)OC(C)C | 39 to 40 |
| CON(C)C(=O)C(CO[Si](C)(C)C(C)(C)C)NC(=O)OC(C)(C)C (centres undefined) | 71 to 72 |
| NC(=O)C(c1ccc([N+](=O)[O-])cc1)c1ccccn1 (racemic) | 155 to 156 |
| Nc1ncnc2c1c(-c1cccnc1)nn2Cc1oc2ccccc2c(=O)c1-c1ccccc1 | 253 to 255 |
| CCOC(=O)c1sc(Oc2ccc(C(C)=O)c(OC)c2)c2c1CCc1cnn(C)c1-2 | 132 to 133 |
| CC=CCNc1cc(C(=O)O)cc(S(N)(=O)=O)c1Nc1ccc(NC(C)=O)cc1 | 230 |
| CCOC(=O)c1c[nH]c2cc(-c3cc(C)nc(C)c3)c(F)cc2c1=O | > 300 |
| COc1cc(OC)cc(-c2nc[nH]c2-c2ccc(OC)c(O)c2O)c1 | 132 to 134 |
| CC(=O)NNc1nc(C(F)(F)F)nc(-c2ccc(S(C)(=O)=O)cc2)c1-c1ccc(Cl)cc1 | 254 to 256 |
| Cc1c(-c2ccc3cn[nH]c3c2)cc(Nc2ccc(N3CCOCC3)cn2)c2nccn12 | 160 to 164 |
| CN(C)CCCC#Cc1cnc(NC(=O)OC(C)(C)C)nc1 | 119 to 120 |
| CN1C(=O)C(c2ccc(OC(F)(F)F)cc2)(C23CC4CC(CC(C4)C2)C3)N=C1N (centres undefined) | 125 |
| COC(=O)C(C)(c1ccc([N+](=O)[O-])cc1)c1cc(C)c(C(=O)c2ccc(Cl)cc2)n1C (centres undefined) | 181 to 182 |
| O=CC1C(=O)NC(=O)N1CCCCCCC(=O)O (centres undefined) | 224 to 225 |
| O=C(CS(=O)(=O)c1ncc(Br)cn1)c1ccccc1 | 95 |
| Cn1nc(N)nc1NCCCO | 139 to 140 |
| CC1(C)c2ccc(CCN3CCN(c4noc5ccccc45)CC3)cc2C(C)(C)C1NS(C)(=O)=O (centres undefined) | 75 to 80 |

Now from value to compound:

| melting point [°C] | Structure (SMILES) |
| --- | --- |
| 172 | CCOC(=O)c1ccc(N2CCC(NCC(O)COc3ccc(N=Nc4ccc([N+](=O)[O-])cc4)nc3)CC2)nc1 (centres undefined) |
| 112 to 114 | CCOC(=O)C1=C(C)NC(=S)N(C(=O)OCC)C1c1ccccc1C (centres undefined) |
| 103 to 105 | CCCCN(C)C(=O)CSCCCCCCOc1ccc(C2=C(c3ccccc3)CCCc3cc(O)ccc32)cc1 |
| 160 to 161 | CCN1C(=O)C(C(=O)Nc2ccc(F)cc2F)c2cc(C(C)=O)ccc21 (centres undefined) |
| 59 to 60 | CCCCCCCCCCC[C@@H](O)CCO |
| 217 to 218 | CCCCNC(=O)NC(Cc1ccccc1)C(=O)Nc1c(F)cc(F)cc1F (centres undefined) |
| 110 to 112 | CC(=C[N+](=O)[O-])c1ccccc1O |
| 136 to 138 | CC(Oc1ccc(CNC(=O)c2cccnc2Oc2ccc3c(c2)OCO3)c(F)c1)C(=O)O (centres undefined) |
| 120 to 122 | N#Cc1cccc(-n2ccc3cc(Cl)ccc32)c1 |
| 101 to 102 | COC(=O)CCn1cc(Cc2cccnc2)c2cc([N+](=O)[O-])ccc21 |
| 206 to 207 | COc1nc(C)c(Nc2nc(Cl)cn([C@H](COC(=O)Nc3cccc(C#N)c3)C3CC3)c2=O)cc1C |
| 49 to 52 | CCOC(=O)Cc1ccc(OCc2ccc3c(c2)OCO3)cc1 |
| 137 to 138 | CC(=O)Nc1ccc(N)c(C(O)c2ccccc2Cl)c1 (centres undefined) |
| 203 | CCCC1=C(C(=O)OCC)C(c2ccccc2OCC)c2c[nH]nc2N1 (centres undefined) |
| 69.5 | CCCCC1Oc2ccc(Cl)cc2N(CC(O)CO)C1=O (centres undefined) |
| 242 to 244 | O=C1c2cccc3cc(OCCO)cc(c23)C(=O)N1O |
| 266 | NC(=O)c1[nH]c2cccnc2c1Sc1ccc(Cl)cc1Cl |
| 109 to 110 | CNCc1cc(=O)oc2cc(OC)ccc12 |
| 355 to 357 | CCc1ccccc1-n1c(=O)[nH]c2c(C(N)=O)nc(-c3cccc(O)c3)nc21 |
| 189 | Nc1cc(=O)n(Cc2ccc(Cl)cc2Cl)[nH]1 |

| melting point [°C] | Structure (SMILES) |
| --- | --- |
| 69 | CCOC(=O)C1(C(=O)OCC)C(CC)C(=O)N1Cc1ccc(OC)cc1OC (centres undefined) |
| 121 to 126 | O=C(NC(CO)Cc1ccc(O)cc1)OCC1CCCCC1 (centres undefined) |
| 139 to 140 | CCCCCC1CN(C(=O)c2cc(OC)c(OC)c(OC)c2)CCN1C(=O)c1cc(OC)c(OC)c(OC)c1 (centres undefined) |
| 124 | COC(=O)C1(NC(=O)Cc2cc(-c3ccc(Cl)cc3)ccc2Cl)CCCCC1 |
| 169 to 170 | CNS(=O)(=O)CCc1ccc2[nH]cc(CCCN3C(=O)c4ccccc4C3=O)c2c1 |
| 195 to 197 | CCn1cc(-c2ccncn2)cc(Br)c1=O |
| 232 to 233 | Cc1c(C(=O)N[C@H](C)[C@](O)(Cn2cncn2)c2ccc(F)cc2F)cnn1-c1ccccc1Cl |
| 93 to 94 | CC(O)(c1ccccc1)c1cc(Cl)ccc1N (centres undefined) |
| 95 to 96 | CCCC1(C)OC(=O)C(OC(C)C)=C1c1ccc(S(C)(=O)=O)cc1 (centres undefined) |
| 61 to 62 | C=CCCCn1ncc2c(OCC)c(C(=O)OCC)cnc21 |
| 112 to 114 | Clc1cccc(Nc2nccc(Cl)n2)c1 |
| 226 to 227 | CC(C)(C)C(NC(=O)c1cccc(Cl)c1)Nc1c(Nc2ccc(C(F)(F)F)nc2)c(=O)c1=O (centres undefined) |
| 222 | CCN(CC)C(=O)Nc1ccc(S(=O)(=O)n2c(=O)n(-c3ccccc3Cl)c3cc(Cl)ccc32)cc1 |
| 107 | CC(C)S(=O)(=O)c1ccc2c(c1)nc(CC1CC1)n2CC1CC1 |
| 260 | CN1C(=O)C(=O)NCC1(CCO)c1ccc(Cl)c(Cl)c1 (centres undefined) |
| 92 to 95 | CCNC(=O)[C@@H]1Cc2ccccc2N1 |
| 148 | COC(=O)c1c2ccccc2nc2cc(Cl)ccc12 |
| 223 | CCCc1ncc(/C=C(\Cc2cccs2)C(=O)O)n1Cc1ccccc1[N+](=O)[O-] |
| 164 to 165 | O=C(O)Cc1cccc(C(=O)c2ccc(Cl)cc2)c1[N+](=O)[O-] |
